Source: patent US4923975A, “Valiolamine derivatives and production thereof” (Takeda Chemical Industries, Ltd., priority 1985, dated 1990)

Assays:
α-glucosidase [1] = conditions: in words; valiolamine and N-substituted valiolamine derivatives (European Patent Publication No. 56194 and 89812); cited from earlier work
[2] = target: T1, sucrase from porcine small intestine (Sus scrofa, UniProt P56729); test: inhibition of sucrase from porcine small intestine (substrate 50 mM sucrose); format: biochemical; conditions: read-out: IC50 (molarity required for 50% inhibition of the enzymatic activity) against sucrase
T1 construct: sucrase from porcine small intestine; from tissue; host or cells: porcine small intestine

α-glucosidase [3] = test: α-glucosidase-inhibiting activity (stated in words); format: biochemical; conditions: VA-G and VM-G
Solubility in solvents = format: physicochemical; conditions: for solubility in water: in words, for isolation and purification
Rhizoctonia solanii = test: minimum concentration causing the abnormal branching at the tops of hypha of Rhizoctonia solanii; format: cell-based; conditions: method: J. Antibiotics 24,114-118 (1971)
Description: For example, the minimum concentration causing the abnormal branching at the tops of hypha of Rhizoctonia solanii [See J. Antibiotics 24,114-118 (1971)}was 0.5 μg/mL for VM-G and 2.5 μg/mL for VA-G.

[4] = system: sheath blight of the rice plant; test: activity against the sheath blight of the rice plant (stated in words); conditions: VA-G and VM-G
[5] = in ethanol, ethyl acetate, chloroform, and acetone
[6] = in water, dimethylsulfoxide, and methanol

T1 sequence (P56729 with tags, fused parts or gaps limits assumed): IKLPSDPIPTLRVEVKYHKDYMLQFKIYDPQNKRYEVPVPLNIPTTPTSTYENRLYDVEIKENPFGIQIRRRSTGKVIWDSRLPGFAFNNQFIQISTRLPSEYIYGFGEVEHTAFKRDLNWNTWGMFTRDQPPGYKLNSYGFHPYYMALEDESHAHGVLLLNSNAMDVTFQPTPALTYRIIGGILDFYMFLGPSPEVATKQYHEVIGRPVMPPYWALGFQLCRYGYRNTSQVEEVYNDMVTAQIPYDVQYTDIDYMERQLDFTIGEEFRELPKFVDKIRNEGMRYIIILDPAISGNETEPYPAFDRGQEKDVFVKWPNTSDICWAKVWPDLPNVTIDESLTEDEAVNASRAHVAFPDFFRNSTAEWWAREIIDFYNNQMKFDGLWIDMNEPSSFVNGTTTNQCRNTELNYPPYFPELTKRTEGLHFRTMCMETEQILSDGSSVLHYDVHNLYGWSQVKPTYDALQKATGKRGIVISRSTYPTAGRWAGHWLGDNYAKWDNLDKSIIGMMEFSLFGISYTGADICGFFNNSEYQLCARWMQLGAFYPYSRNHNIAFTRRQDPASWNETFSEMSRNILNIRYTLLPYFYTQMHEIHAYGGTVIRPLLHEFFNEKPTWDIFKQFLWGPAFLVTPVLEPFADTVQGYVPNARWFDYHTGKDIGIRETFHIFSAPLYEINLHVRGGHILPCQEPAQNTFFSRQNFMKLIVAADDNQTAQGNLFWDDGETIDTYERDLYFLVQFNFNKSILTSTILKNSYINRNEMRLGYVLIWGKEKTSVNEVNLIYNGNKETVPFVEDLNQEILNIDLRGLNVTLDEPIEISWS
T1 sequence (P56729 with tags, fused parts or gaps partner limits assumed): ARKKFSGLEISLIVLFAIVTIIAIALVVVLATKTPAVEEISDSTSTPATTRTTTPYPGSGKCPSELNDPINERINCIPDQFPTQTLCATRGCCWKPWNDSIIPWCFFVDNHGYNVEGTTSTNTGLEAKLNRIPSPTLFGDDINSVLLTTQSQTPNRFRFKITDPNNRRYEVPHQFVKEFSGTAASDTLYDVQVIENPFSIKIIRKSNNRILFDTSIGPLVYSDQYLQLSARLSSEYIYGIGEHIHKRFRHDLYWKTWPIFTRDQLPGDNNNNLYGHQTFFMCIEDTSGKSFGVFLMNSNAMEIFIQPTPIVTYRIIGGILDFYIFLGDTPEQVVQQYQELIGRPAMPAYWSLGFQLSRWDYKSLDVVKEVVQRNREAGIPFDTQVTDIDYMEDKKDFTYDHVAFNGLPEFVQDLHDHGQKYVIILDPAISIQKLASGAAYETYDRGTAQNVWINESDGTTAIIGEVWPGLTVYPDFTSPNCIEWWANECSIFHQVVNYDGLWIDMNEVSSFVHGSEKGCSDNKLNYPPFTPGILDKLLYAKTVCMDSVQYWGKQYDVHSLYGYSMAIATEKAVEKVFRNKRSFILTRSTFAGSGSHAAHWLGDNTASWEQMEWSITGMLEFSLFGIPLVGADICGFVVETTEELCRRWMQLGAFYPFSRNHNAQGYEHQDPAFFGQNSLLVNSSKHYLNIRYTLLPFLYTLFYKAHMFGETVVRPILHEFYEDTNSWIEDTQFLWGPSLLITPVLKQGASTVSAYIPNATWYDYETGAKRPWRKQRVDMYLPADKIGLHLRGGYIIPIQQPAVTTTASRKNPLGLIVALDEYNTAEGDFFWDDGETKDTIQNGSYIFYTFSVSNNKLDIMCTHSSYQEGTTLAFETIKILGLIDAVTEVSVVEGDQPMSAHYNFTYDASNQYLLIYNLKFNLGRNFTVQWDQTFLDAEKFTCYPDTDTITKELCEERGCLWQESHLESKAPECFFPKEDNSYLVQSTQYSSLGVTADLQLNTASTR

Molecule	α-glucosidase-inhibitory action (α-glucosidase [1])	further results
OC[C@@]1(O)C[C@H](NCCc2ccccc2)[C@H](O)[C@@H](O)[C@@H]1O [(1), N-phenethylvaliolamine]	potent α-glucosidase-inhibitory action	
OC[C@@]1(O)C[C@H](NCC=Cc2ccccc2)[C@H](O)[C@@H](O)[C@@H]1O [(2), N-(3-phenylallyl)valiolamine]	potent α-glucosidase-inhibitory action	
OC[C@@]1(O)C[C@H](NCc2ccco2)[C@H](O)[C@@H](O)[C@@H]1O [(3), N-furfurylvaliolamine]	potent α-glucosidase-inhibitory action	
OC[C@@]1(O)C[C@H](NCc2cccs2)[C@H](O)[C@@H](O)[C@@H]1O [(4), N-thenylvaliolamine]	potent α-glucosidase-inhibitory action	
OC[C@@]1(O)C[C@H](NCc2cccnc2)[C@H](O)[C@@H](O)[C@@H]1O [(5), N-(3-pyridylmethyl)valiolamine]	potent α-glucosidase-inhibitory action	
OC[C@@]1(O)C[C@H](NCc2ccc(Br)cc2)[C@H](O)[C@@H](O)[C@@H]1O [(6), N-(4-bromobenzyl)valiolamine]	potent α-glucosidase-inhibitory action	
OC[C@@]1(O)C[C@H](NC[C@H](O)c2ccccc2)[C@H](O)[C@@H](O)[C@@H]1O [(7), N-[(R)-β-hydroxyphenethyl]valiolamine]	potent α-glucosidase-inhibitory action	
OC[C@@]1(O)C[C@H](NC[C@@H](O)c2ccccc2)[C@H](O)[C@@H](O)[C@@H]1O [(8), N-[(S)-β-hydroxyphenethyl]valiolamine]	potent α-glucosidase-inhibitory action	
COc1ccccc1C(O)CN[C@H]1C[C@](O)(CO)[C@@H](O)[C@H](O)[C@H]1O (stereo partly drawn) [(9), N-(β-hydroxy-2-methoxyphenethyl)valiolamine]	potent α-glucosidase-inhibitory action	
CC(C)(C)c1cc(CN[C@H]2C[C@](O)(CO)[C@@H](O)[C@H](O)[C@H]2O)cc(C(C)(C)C)c1O [(10), N-(3,5-di-tert-butyl-4-hydroxybenzyl)valiolamine]	potent α-glucosidase-inhibitory action	
OC[C@@]1(O)C[C@H](NCC2CCCCC2)[C@H](O)[C@@H](O)[C@@H]1O [(11), N-(cyclohexylmethyl)valiolamine]	potent α-glucosidase-inhibitory action	
CC(C)=CCC/C(C)=C/CN[C@H]1C[C@](O)(CO)[C@@H](O)[C@H](O)[C@H]1O [(12), N-geranylvaliolamine]	potent α-glucosidase-inhibitory action	
OCC(CO)N[C@H]1C[C@](O)(CO)[C@@H](O)[C@H](O)[C@H]1O [(13), N-(1,3-dihydroxy-2-propyl)valiolamine]	potent α-glucosidase-inhibitory action	
OCC(N[C@H]1C[C@](O)(CO)[C@@H](O)[C@H](O)[C@H]1O)C(O)c1ccccc1 (stereo partly shown) [(14), N-(1,3-dihydroxy-1-phenyl-2-propyl)valiolamine]	potent α-glucosidase-inhibitory action	
OC[C@H](N[C@H]1C[C@](O)(CO)[C@@H](O)[C@H](O)[C@H]1O)c1ccccc1 [(15), N-[(R)-o-(hydroxymethyl)benzyl]valiolamine]	potent α-glucosidase-inhibitory action	
OC[C@@]1(O)C[C@H](NC2CCCCC2)[C@H](O)[C@@H](O)[C@@H]1O [(16), N-cyclohexylvaliolamine]	potent α-glucosidase-inhibitory action	

Molecule	α-glucosidase-inhibitory action (α-glucosidase [1])	further results
OC[C@@]1(O)C[C@H](NC2CCCCC2O)[C@H](O)[C@@H](O)[C@@H]1O (stereo partly shown) [(17), N-(2-hydroxycyclohexyl)valiolamine]	potent α-glucosidase-inhibitory action	
OC[C@@]1(O)C[C@H](N[C@@H]2CCCC[C@H]2O)[C@H](O)[C@@H](O)[C@@H]1O [(18), N-[(1R,2R)-2-hydroxycyclohexyl]valiolamine]	potent α-glucosidase-inhibitory action	
OC[C@@]1(O)C[C@H](NC2CCCC2O)[C@H](O)[C@@H](O)[C@@H]1O (stereo partly shown) [(19), N-(2-hydroxycyclopentyl)valiolamine]	potent α-glucosidase-inhibitory action	
CO[C@H]1O[C@H](C)[C@@H](N[C@H]2C[C@](O)(CO)[C@@H](O)[C@H](O)[C@H]2O)[C@H](O)[C@H]1O [(20), Methyl 4-[(1S,2S)-(2,4,5(OH)/3,5)-2,3,4,5-tetrahydroxy-5-(hydroxymethyl)cyclohexyl]amino-4,6-dideoxy-α-D-glucopyranoside]	potent α-glucosidase-inhibitory action	
N[C@H]1C[C@H](CO)[C@@H](N[C@H]2C[C@](O)(CO)[C@@H](O)[C@H](O)[C@H]2O)[C@H](O)[C@H]1O [(22), [(1S,2S)-(2,4,5(OH)/3,5)-2,3,4,5-tetrahydroxy-5-(hydroxymethyl)cyclohexyl][(1R,2S)-(2,6/3,4)-4-amino-2,3-dihydroxy-6-(hydroxymethyl)cyclohexyl]-amine]	potent α-glucosidase-inhibitory action	
OC[C@H]1C[C@@H](N[C@H]2C[C@](O)(CO)[C@@H](O)[C@H](O)[C@H]2O)[C@H](O)[C@@H](O)[C@@H]1O [(23), N-[(1R,2S)-(2,4/3,5)-2,3,4-trihydroxy-5-(hydroxymethyl)cyclohexyl]valiolamine]	potent α-glucosidase-inhibitory action	
C[C@H]1C[C@H](N)[C@H](O)[C@@H](O)[C@@H]1N[C@H]1C[C@](O)(CO)[C@@H](O)[C@H](O)[C@H]1O [(24), N-[(1R,2S)-(2,6/3,4)-4-amino-2,3-dihydroxy-6-methylcyclohexyl]valiolamine]	potent α-glucosidase-inhibitory action	
C[C@H]1C[C@H](O)[C@H](O)[C@@H](O)[C@@H]1N[C@H]1C[C@](O)(CO)[C@@H](O)[C@H](O)[C@H]1O [(25), N-[(1R,2S)-(2,6/3,4)-2,3,4-trihydroxy-6-methylcyclohexyl]valiolamine]	potent α-glucosidase-inhibitory action	
C[C@H]1C[C@@H](O)[C@H](O)[C@@H](O)[C@@H]1N[C@H]1C[C@](O)(CO)[C@@H](O)[C@H](O)[C@H]1O [(26), N-[(1R,2S)-(2,4,6/3)-2,3,4-trihydroxy-6-methylcyclohexyl]valiolamine]	potent α-glucosidase-inhibitory action	
C[C@H]1O[C@H](O[C@H]2[C@H](O)[C@@H](O)C(O)O[C@@H]2CO)[C@H](O)[C@@H](O)[C@@H]1N[C@H]1C[C@](O)(CO)[C@@H](O)[C@H](O)[C@H]1O (stereo partly drawn) [(27), 4-O-α-[4-[[(1S)-(1,2,4,5(OH)/3,5)-2,3,4,5-tetrahydroxy-5-(hydroxymethyl)cyclohexyl]amino]-4,6-dideoxy-D-glucopyranosyl]-D-glucopyranose]	potent α-glucosidase-inhibitory action	
C[C@H]1O[C@H](O[C@H]2[C@H](O)[C@@H](O)[C@@H]3OC[C@H]2O3)[C@H](O)[C@@H](O)[C@@H]1N[C@H]1C[C@](O)(CO)[C@@H](O)[C@H](O)[C@H]1O [(28)]	potent α-glucosidase-inhibitory action	
OCC1=C[C@H](N[C@H]2C[C@](O)(CO)[C@@H](O)[C@H](O)[C@H]2O)[C@H](O)[C@@H](O)[C@@H]1O [VA-G, validoxylamine G]		IC50 [2]: 8.8 µM; α-glucosidase-inhibiting activity (α-glucosidase [3]): α-glucosidase-inhibiting activity; Solubility in solvents (Solubility in solvents; [5]): Slightly soluble or insoluble; Solubility in solvents (Solubility in solvents; [6]): Soluble; solubility in water (Solubility in solvents): water-soluble basic substances; minimal effective concentration (Rhizoctonia solanii): 2.5 µg/mL; activity against the sheath blight of the rice plant [4]: an activity against the sheath blight of the rice plant
OCC1=C[C@H](N[C@H]2C[C@](O)(CO)[C@@H](O[C@@H]3O[C@H](CO)[C@@H](O)[C@H](O)[C@H]3O)[C@H](O)[C@H]2O)[C@H](O)[C@@H](O)[C@@H]1O [VM-G, validamycin G]		IC50 [2]: 110 µM; α-glucosidase-inhibiting activity (α-glucosidase [3]): α-glucosidase-inhibiting activity; Solubility in solvents (Solubility in solvents; [5]): Slightly soluble or insoluble; Solubility in solvents (Solubility in solvents; [6]): Soluble; solubility in water (Solubility in solvents): water-soluble basic substances; minimal effective concentration (Rhizoctonia solanii): 0.5 µg/mL; activity against the sheath blight of the rice plant [4]: an activity against the sheath blight of the rice plant
N[C@H]1C[C@](O)(CO)[C@@H](O)[C@H](O)[C@H]1O [Valiolamine, valiolamine]	potent α-glucosidase-inhibitor	
Methyl 4-[(1S,2S)-(2,4,5(OH)/3,5)-2,3,4,5-deoxy-α-D-glucopyranoside [(21)]	potent α-glucosidase-inhibitory action	
